Assay results taken from patent US20230024442A1, “BIFUNCTIONAL COMPOUNDS FOR GRADING BTK VIA UBIQUITIN PROTEOSOME PATHWAY” (NURIX THERAPEUTICS, INC., priority 2019, published 2023).

Biological target: T1, BTK (Homo sapiens, UniProt Q06187)
T1 construct: endogenous in cells; host or cells: Ramos (ATCC CRL-1596)
Assay: Cellular BTK HTRF Assay (BTK levels in Ramos cells)
Type: cell-based
Settings: Ramos cells, 50,000 cells, incubated four hours at 37° C.; BTK levels by Cisbio Total-BTK HTRF relative to DMSO-treated cells
Protocol: Ramos (CRL-1596) cells were obtained from American Type Culture Collection and were grown in RPMI-1640 media (ATCC, 30-2001) supplemented with 10% heat-inactivated FBS (Corning Premium Fetal Bovine Serum from Fisher, MT35015CV).
Compounds of the present invention were added to 50,000 Ramos cells in round-bottom 96 well plates with a final DMSO concentration of […] and were incubated at 37° C. 5% CO2 for four hours. BTK levels were determined using Cisbio Total-BTK HTRF ([…] Time-Resolved Fluorescence) kit (63ADK064PEG) according to manufacturer's protocol. Briefly, cells were incubated in 1× supplied lysis buffer for 30 minutes. In an opaque white low volume 96 well plate (Cisbio, 66PL96005), cell lysate was combined with two different specific BTK antibodies, one conjugated with Eu^3+-Cryptate FRET donor and one conjugated with d2 FRET acceptor. Assay controls include wells containing cell lysate with only the Eu^3+-Cryptate FRET donor antibody and wells containing both HTRF antibodies and lysis buffer without cells or control lysate provided by Cisbio. HTRF ratio was calculated as (acceptor signal at 665 nm/donor signal at 620 nm)×10^4. Background HTRF levels were determined from the control well containing the donor, but no acceptor, antibody. Background HTRF levels were subtracted from all samples. Readouts were reported as HTRF levels relative to HTRF levels of DMSO-treated cells. Four-parameter non-linear regressions were performed in GraphPad Prism 7.02 to obtain DC50 values. DC50 values are provided in Table 7, wherein A<1 nM, 1 nM≤B≤10 nM, and 10 nM<C<1 μM.

T1 sequence (Q06187 whole entry): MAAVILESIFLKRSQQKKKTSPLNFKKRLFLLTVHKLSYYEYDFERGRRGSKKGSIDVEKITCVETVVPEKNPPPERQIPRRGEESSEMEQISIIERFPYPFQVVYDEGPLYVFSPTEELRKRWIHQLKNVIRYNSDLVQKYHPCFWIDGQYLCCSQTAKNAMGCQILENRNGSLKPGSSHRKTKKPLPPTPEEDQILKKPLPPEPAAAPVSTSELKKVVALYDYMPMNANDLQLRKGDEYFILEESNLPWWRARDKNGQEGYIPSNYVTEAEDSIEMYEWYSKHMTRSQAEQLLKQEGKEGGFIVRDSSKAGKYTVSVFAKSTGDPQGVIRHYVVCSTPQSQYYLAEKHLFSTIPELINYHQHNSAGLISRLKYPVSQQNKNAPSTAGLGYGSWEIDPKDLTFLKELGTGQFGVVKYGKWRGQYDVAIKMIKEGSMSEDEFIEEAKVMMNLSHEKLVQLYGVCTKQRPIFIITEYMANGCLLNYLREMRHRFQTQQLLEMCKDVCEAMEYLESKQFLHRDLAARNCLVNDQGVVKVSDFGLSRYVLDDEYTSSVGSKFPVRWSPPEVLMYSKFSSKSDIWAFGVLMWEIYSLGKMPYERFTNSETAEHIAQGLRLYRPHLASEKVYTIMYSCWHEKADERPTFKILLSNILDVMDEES

Row | DC50 [nM] | Compound
1 | 1 to 10 | C[C@H]1CN(C(=O)CCCc2cccc3c2CN(C2CCC(=O)NC2=O)C3=O)CCN1c1ccc(Nc2cc(-c3ccnc(N4CCn5c(cc6c5CC(C)(C)C6)C4=O)c3CO)cn(C)c2=O)nc1 (some centres unmarked) [Compound 33]
2 | 1 to 10 | C[C@H]1CN(C(=O)[C@H]2C[C@H](OCCCc3cccc4c3CN(C3CCC(=O)NC3=O)C4=O)C2)CCN1c1ccc(Nc2cc(-c3ccnc(N4CCn5c(cc6c5CC(C)(C)C6)C4=O)c3CO)cn(C)c2=O)nc1 (some centres unmarked) [Compound 29]
3 | 1 to 10 | Cn1cc(-c2ccnc(-n3ncc4cc(C(C)(C)C)cc(F)c4c3=O)c2CO)cc(Nc2cc3n(n2)CCN(C(=O)CCCNc2cccc4c2C(=O)N(C2CCC(=O)NC2=O)C4=O)C3)c1=O (centres unmarked) [Compound 9]
4 | 1 to 10 | Cn1cc(-c2ccnc(-n3ncc4cc(C(C)(C)C)cc(F)c4c3=O)c2CO)cc(Nc2cc3n(n2)CCN(C(=O)CN2CCN(CCCc4cccc5c4C(=O)N(C4CCC(=O)NC4=O)C5=O)CC2)C3)c1=O (centres unmarked) [Compound 14]
5 | 1 to 10 | Cn1cc(-c2ccnc(-n3ncc4cc(C(C)(C)C)cc(F)c4c3=O)c2CO)cc(Nc2cc3n(n2)CCN(C(=O)CCCN2CCN(c4cc5c(cc4F)C(=O)N(C4CCC(=O)NC4=O)C5=O)CC2)C3)c1=O (centres unmarked) [Compound 23]
6 | 1 to 10 | C[C@H]1CN(C(=O)CCOCCC(=O)Nc2cccc3c2CN(C2CCC(=O)NC2=O)C3=O)CCN1c1ccc(Nc2cc(-c3ccnc(N4CCn5c(cc6c5CC(C)(C)C6)C4=O)c3CO)cn(C)c2=O)nc1 (some centres unmarked) [Compound 57]
7 | 10 to 1000 | Cn1cc(-c2ccnc(-n3ncc4cc(C(C)(C)C)cc(F)c4c3=O)c2CO)cc(Nc2cc3n(n2)CCN(C(=O)CN2CCN(CCCc4cccc5c4CN(C4CCC(=O)NC4=O)C5=O)CC2)C3)c1=O (centres unmarked) [Compound 16]
8 | 1 to 10 | Cn1cc(-c2ccnc(-n3ncc4cc(C(C)(C)C)cc(F)c4c3=O)c2CO)cc(Nc2cc3n(n2)CCN(CCCCc2cccc4c2CN(C2CCC(=O)NC2=O)C4=O)C3)c1=O (centres unmarked) [Compound 18]
9 | 1 to 10 | C[C@H]1CN(C(=O)CN2CCN(CCc3cccc4c3CN(C3CCC(=O)NC3=O)C4=O)CC2)CCN1c1ccc(Nc2cc(-c3ccnc(N4CCn5c(cc6c5CC(C)(C)C6)C4=O)c3CO)cn(C)c2=O)nc1 (some centres unmarked) [Compound 26]
10 | 1 to 10 | Cn1cc(-c2ccnc(-n3ccc4cc(C5CC5)cc(F)c4c3=O)c2CO)cc(Nc2cc3n(n2)CCN(C(=O)CCOCCCc2ccc4c(c2)C(=O)N(C2CCC(=O)NC2=O)C4=O)C3)c1=O (centres unmarked) [Compound 24]
11 | 1 to 10 | C[C@H]1CN(C(=O)CCOCCOCCOCCNc2cccc3c2C(=O)N(C2CCC(=O)NC2=O)C3=O)CCN1c1ccc(Nc2cc(-c3ccnc(N4CCn5c(cc6c5CC(C)(C)C6)C4=O)c3CO)cn(C)c2=O)nc1 (some centres unmarked) [Compound 52]
12 | 1 to 10 | C[C@@H]1CN(CCOCCOCCOCCNc2cccc3c2C(=O)N(C2CCC(=O)NC2=O)C3=O)CCN1c1ccc(Nc2cc(-c3ccnc(N4CCn5c(cc6c5CC(C)(C)C6)C4=O)c3CO)cn(C)c2=O)nc1 (some centres unmarked) [Compound 41]
13 | 1 to 10 | C[C@H]1CN(C(=O)CCOCCNc2cccc3c2C(=O)N(C2CCC(=O)NC2=O)C3=O)CCN1c1ccc(Nc2cc(-c3ccnc(N4CCn5c(cc6c5CC(C)(C)C6)C4=O)c3CO)cn(C)c2=O)nc1 (some centres unmarked) [Compound 55]
14 | 1 to 10 | C[C@H]1CN(C(=O)CCOCCOCCOCCOCCNc2cccc3c2C(=O)N(C2CCC(=O)NC2=O)C3=O)CCN1c1ccc(Nc2cc(-c3ccnc(N4CCn5c(cc6c5CC(C)(C)C6)C4=O)c3CO)cn(C)c2=O)nc1 (some centres unmarked) [Compound 51]
15 | 1 to 10 | C[C@@H]1CN(C(=O)NCCCCCc2cccc3c2CN(C2CCC(=O)NC2=O)C3=O)CCN1c1ccc(Nc2cc(-c3ccnc(N4CCn5c(cc6c5CC(C)(C)C6)C4=O)c3CO)cn(C)c2=O)nc1 (some centres unmarked) [Compound 46]
16 | 1 to 10 | C[C@H]1CN(C(=O)CCCCc2cccc3c2CN(C2CCC(=O)NC2=O)C3=O)CCN1c1ccc(Nc2cc(-c3ccnc(N4CCn5c(cc6c5CC(C)(C)C6)C4=O)c3CO)cn(C)c2=O)nc1 (some centres unmarked) [Compound 38]
17 | 1 to 10 | C[C@H]1CN(C(=O)CCOCCCc2cccc3c2C(=O)N(C2CCC(=O)NC2=O)C3=O)CCN1c1ccc(Nc2cc(-c3ccnc(N4CCn5c(cc6c5CC(C)(C)C6)C4=O)c3CO)cn(C)c2=O)nc1 (some centres unmarked) [Compound 28]
